# From patent US20100285583A1, “COMPOUNDS AND METHODS FOR INHIBITING PLATELET AGGREGATION” (priority 2009, published 2010)
# Experiments:
# Human washed platelets = test: Platelet immunofluorescence analysis (subcellular localization); assay type: cell-based; conditions: activated platelets in presence of inhibitor
# Experimental: Washed platelets (50 μl of […] in Tyrode's albumin buffer) were incubated with 1.9 μM of PTB domain constructs for 5 min at room temperature in the presence of 0.25 g/L fibrinogen. Aggregation was initiated by the addition of 10 μM TRAP. Reactions were incubated at room temperature unless otherwise indicated. Platelets were fixed with 0.4 mL of 3.7% formaldehyde in Phosphate Buffered Saline (PBS) for 30 min. Next, 20% goat serum was added to the fixed platelets, and 60% of the total fixed reaction was centrifuged using a Shandon cytospinner onto a Shandon coated cytoslide to achieve the appropriate platelet density for analysis. Slides were then washed twice with PBS for 10 min. Platelets were permeabilized with 0.5% Triton X-100 in PBS for 10 min and then blocked with 20% goat serum in PBS with 0.1% Triton X-100 for 1 h at room temperature. Platelets were washed 3 times with PBS with 0.1% Triton for 10 minutes and further incubated overnight with the anti-Dab2 antibody 1:100 (anti-p96; BD Transduction) in PBS with 0.1% Triton X-100 and 10% goat serum at 4° C. in a humidity chamber. Platelets were then washed and incubated with the anti-mouse Cy-3 conjugated goat antibody 1:250 and Alexa488 conjugated phalloidin (25 μg/mL) in PBS with 0.1% Triton X-100 and 10% goat serum for 2 h. Platelets were washed again and observed on an Olympus IX71 microscope using the Softworx Applied Precision software.
# Mean pixel intensity was determined for 400 platelets from four fields each for 3 min and 10 min of treatments by manually drawing circles around individual platelets using the 2D Polygon tool in the Softworx software. For each time point, a threshold of significant mean pixel intensity was defined for the experiment. The percentage of countable platelets to exceed the threshold was calculated for each field and the average of four fields was computed with standard deviation. The ratio of internalization:binding is the quotient of these averages for a treatment.
# N-PTB domain = target: T1, N-PTB domain (Homo sapiens, UniProt P98082, A82R); test: Protein-lipid overlay competition assay; assay type: binding; conditions: pre-incubation with 10-fold excess of lipid
# T1 construct: The N-PTB domain (residues 1-241) cDNA construct was cloned into a pGEX6P1 vector; made in house; host or cells: E. coli Rosetta
# T1 sequence (P98082 1-241 A82R): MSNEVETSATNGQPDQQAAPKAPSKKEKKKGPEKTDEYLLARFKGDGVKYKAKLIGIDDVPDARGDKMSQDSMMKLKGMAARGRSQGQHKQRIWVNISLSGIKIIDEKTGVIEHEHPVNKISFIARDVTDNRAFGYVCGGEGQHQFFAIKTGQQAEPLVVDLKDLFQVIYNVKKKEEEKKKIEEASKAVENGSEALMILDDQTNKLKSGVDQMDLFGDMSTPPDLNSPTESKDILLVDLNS
# Experimental: Membrane strips (SphingoStrips™) spotted with 100 pmol of sphingolipids were purchased from Echelon Research Laboratories. Membrane strips were incubated with 0.1 μg/ml of the Dab2 PTB domain or its mutants in 20 mM Tris-HCl (pH 8.0), 150 mM NaCl, 0.1% Tween-20 and 3% fatty acid-free bovine serum albumin overnight at 4° C. Following four washes with the same buffer, proteins bound to the membrane strips were probed with rabbit anti-GST antibody (Santa Cruz Biotech). Donkey anti rabbit-horse radish peroxidase (HRP) antibody was obtained from GE Healthcare. Detection was carried out using ECL reagent (Pierce). Also, lipid strips were prepared by spotting 1 μl of either sulfatides or PtdIns(4,5)P2 dissolved in chloroform:methanol:water (1:2:0.8 and 65:35:8, respectively) onto Hybond-C extra membranes (GE Healthcare) and protein binding was monitored as described above. Bound protein was quantified using the AlphaImager program and binding was calculated as a percentage of GST-PTB binding to 100 pmoles of spotted lipid.
# We next asked whether sulfatides and PtdIns(4,5)P2 compete with each other for binding to the N-PTB domain using a protein-lipid overlay competition assay. […] This observation was further confirmed by competing sulfatides and PtdIns(4,5)P2 for N-PTB domain binding using SPR. […]
# [1] = test system: T2, Dab2 N-terminal phosphotyrosine binding domain (N-PTB, residues 1-241 of human Disabled-2), wild type
# T2 sequence: T1 sequence (P98082 1-241 A82R)
molecule,measurement,setting,value
"C=C1[C@@H](C)[C@H]2[C@H](Cc3ccccc3)NC(=O)[C@]23[C@H](OC(C)=O)/C=C/[C@@](C)(O)C(=O)[C@@H](C)C/C=C/[C@H]3[C@@H]1O [cytochalasin D, reference compound]",effect on N-PTB domain internalization,Human washed platelets,completely blocked N-PTB domain internalization
"CCCCCCCCCCCCCCCC(=O)OC[C@H](COP(=O)(O)O[C@@H]1[C@H](O)[C@H](OP(=O)(O)O)[C@@H](O)[C@H](O)[C@H]1O)OC(=O)CCCCCCCCCCCCCCC [PtdIns(3)P, phosphatidylinositol 3-phosphate]",competition with sulfatide for PTB binding,N-PTB domain,did not compete
"CN(C)CCCN1c2ccccc2Sc2ccc(Cl)cc21 [chlorpromazine, reference compound]",effect on N-PTB domain internalization,Human washed platelets,inhibited
"phosphatidylinositol 4,5-bisphosphate [PtdIns(4,5)P2]",reduction of sulfatide binding of N-PTB domain,N-PTB domain,at least 60%
thrombin,thrombin proteolysis of the N-PTB domain (FIG. 3B),[1],thrombin cleaved the N-PTB domain leaving a ˜25 kW protease-resistant product
